Structures can show the parent of a compound that is named as a salt.
Each compound was assayed on sterol synthesis (cholesterol biosynthesis) in rat liver homogenate (assay: CSI screen: inhibition of sterol/cholesterol synthesis (14C-acetate incorporation into nonsaponifiable lipid) by rat liver homogenate). Conditions: one-hour period, rats fed 5% cholestyramine for four days, 60 min, read-out: CSI/IC50 (concentration required for 50% inhibition of sterol synthesis).
Type: biochemical
Procedure: The ability of compounds of the present invention to inhibit the biosynthesis of cholesterol was measured by a method (designated CSI screen) which utilizes the procedure described by R. E. Dugan, et al, Archiv. Biochem. Biophys., (1972), 152, 21-27. In this method, the level of HMG-CoA enzyme activity in standard laboratory rats is increased by feeding the rats a chow diet containing 5% cholestyramine for four days, after which the rats are sacrificed.
The rat livers are homogenized, and the incorporation of […] into nonsaponifiable lipid by the rat liver homogenate is measured. The micromolar concentration of compound required for 50% inhibition of sterol synthesis over a one-hour period is measured, and expressed as an IC50 value.
`Cc1nccc(-c2ccccc2)c1/C=C/[C@@H]1C[C@@H](O)CC(=O)O1` (relative stereo) [Example 1, [4α,6β(E)]-Tetrahydro-4-hydroxy-6-[2-(2-methyl-4-phenyl-3-pyridinyl)ethenyl]-2H-pyran-2-one] showed an IC50 of 360 nM.
`Cc1cc(-c2ccccc2)c(/C=C/[C@@H]2C[C@@H](O)CC(=O)O2)c(C)n1` (relative stereo) [Example 2, [4α,6β(E)]-6-[2-(2,6-Dimethyl-4-phenyl-3-pyridinyl)ethenyl]tetrahydro-4-hydroxy-2H-pyran-2-one] was tested, and the IC50 was 180 nM.
In the case of `Cc1cc(-c2ccccc2)c(/C=C/[C@@H](O)C[C@@H](O)CC(=O)O)c(C)n1` (relative stereo) [Example 3, [R*,S*(E)]-7-(2,6-dimethyl-4-phenyl-3-pyridinyl)-3,5-dihydroxy-6-heptenoicacid, sodium salt], the IC50 is reported as 230 nM.
`Cc1nccc(-c2ccccc2)c1CC[C@H]1C[C@H](O)CC(=O)O1` (relative stereo) [Example 4, trans-Tetrahydro-4-hydroxy-6-[2-(2-methyl-4-phenyl-3-pyridinyl)ethyl]-2H-pyran-2-one] showed an IC50 of 420 nM.
With `Cc1nc(C)c(/C=C/[C@@H](O)C[C@@H](O)CC(=O)O)c(-c2ccc(F)cc2)c1C#N` (relative stereo) [Example 6, [R*,S*(E)]-7-[5-Cyano-4-(4-fluorophenyl)-2,6-dimethyl-3-pyridinyl]-3,5-dihydroxy-6-heptenoic acid, sodium salt] the IC50 was 62 nM.
For `Cc1cc(-c2ccc(F)cc2)c(/C=C/[C@@H]2C[C@@H](O)CC(=O)O2)c(C)n1` (relative stereo) [Example 7, [4α,6β(E)]-6-[2-[4-(4-Fluorophenyl)-2,6-dimethyl-3-pyridinyl]ethenyl]tetrahydro-4-hydroxy-2H-pyran-2-one], the IC50 was 68 nM.
`Cc1cc(-c2ccc(F)cc2)c(/C=C/[C@@H](O)C[C@@H](O)CC(=O)O)c(C)n1` (relative stereo) [Example 8, [R*,S*(E)]-7-[4-(4-Fluorophenyl)-2,6-dimethyl-3-pyridinyl]-3,5-dihydroxy-6-heptenoic acid, sodium salt] was tested, and the IC50 was 72 nM.
`COC(=O)c1c(C(C)C)nc(C)c(/C=C/[C@@H](O)C[C@@H](O)CC(=O)O)c1-c1ccc(F)cc1` (relative stereo) [Example 10, [R*,S*-(E)]-5-(6-carboxy-3,5-dihydroxy-1-hexenyl)-4-(4-fluorophenyl)-6-methyl-2-(1-methylethyl)-, 3-methyl ester, 3-pyridinecarboxylic acid, monosodium salt] was tested, and the IC50 was 70 nM.
`CCOC(=O)c1c(C)nc(C)c(/C=C/[C@@H](O)C[C@@H](O)CC(=O)O)c1-c1ccc(F)cc1` (relative stereo) [Example 12, [R*,S*-(E)]-5-(6-carboxy-3,5-dihydroxy-1-hexenyl)-4-(4-fluorophenyl)-2,6-dimethyl-, 3-ethyl ester, 3-pyridinecarboxylic acid, monosodium salt] showed an IC50 of 140 nM.
Work on `COC(=O)c1c(C(C)C)nc(C(C)C)c(/C=C/[C@@H](O)C[C@@H](O)CC(=O)O)c1-c1ccc(F)cc1` (relative stereo) [Example 14, [R*,S*-(E)]-5-(6-carboxy-3,5-dihydroxy-1-hexenyl)-4-(4-fluorophenyl)-2,6-bis-1-methylethyl)-, methyl ester-3-pyridinecarboxylic acid, sodium salt] yielded an IC50 of 79 nM.
`CC(C)c1cc(-c2ccc(F)cc2)c(/C=C/[C@@H](O)C[C@@H](O)CC(=O)O)c(C(C)C)n1` (relative stereo) [Example 16, [R*,S*(E)]-7-[4-(4-fluorophenyl)-2,6-bis(1-methylethyl)-3-pyridinyl]-3,5-dihydroxy-6-heptenoic acid, monosodium salt] gave an IC50 of 30 nM.
`Cc1cc(-c2ccc(F)cc2)c(/C=C/[C@@H](O)C[C@@H](O)CC(=O)O)c(C(C)C)n1` (relative stereo) [Example 20, [R*,S*-(E)]-7-[4-(4-fluorophenyl)-6-methyl-2-(1-methylethyl)-3-pyridinyl-3,5-dihydroxy-6-heptenoic acid, sodium salt] gave an IC50 of 16 nM.
`Cc1cc(-c2ccc(F)cc2)c(/C=C/[C@@H](O)C[C@@H](O)CC(=O)O)c(C(F)(F)F)n1` (relative stereo) [Example 23, [R*,S*-(E)]-7-[4-(4-fluorophenyl)-6-methyl-2-(trifluoromethyl)-3,5-dihydroxy-6-heptenoic acid, monosodium salt] showed an IC50 of 50 nM.
`O=C(O)C[C@H](O)C[C@H](O)/C=C/c1c(-c2ccc(F)cc2)cc(C(F)F)nc1C(F)(F)F` (relative stereo) [Example 25, [R*,S*-(E)]-7-[6-(difluoromethyl)-4-(4-fluorophenyl)-2-(trifluoromethyl)-3-pyridinyl]-3,5-dihydroxy-6-heptenoic acid, monosodium salt] showed an IC50 of 71 nM.
Work on `CCc1cc(-c2ccc(F)cc2)c(/C=C/[C@@H](O)C[C@@H](O)CC(=O)O)c(CC)n1` (relative stereo) [Example 27, [R*,S*-(E)]-7-[2,6-diethyl-4-4-(fluorophenyl)-3-pyridinyl]-3,5-dihydroxy-6-heptenoic acid, monosodium salt] yielded an IC50 of 32 nM.
`Cc1cc(C)c(/C=C/[C@@H](O)C[C@@H](O)CC(=O)O)c(-c2ccc(F)cc2)n1` (relative stereo) [Example 29, [R*,S*-(E)]-7-[2-(4-fluorophenyl)-4,6-dimethyl-3-pyridinyl]-3,5-dihydroxy-6-heptenoic acid, monosodium salt] gave an IC50 of 50 nM.
With `CC(C)c1nc(-c2ccccc2)cc(-c2ccc(F)cc2)c1/C=C/[C@@H](O)C[C@@H](O)CC(=O)O` (relative stereo) [Example 31, [R*,S*-(E)]-7-[2-[4-(4-fluorophenyl)-2-(1-methylethyl)-6-phenyl-3-pyridinyl]ethenyl]-3,5-dihydroxy-6-heptenoic acid, monosodium salt] the IC50 was 58 nM.
Compound `CCCNC(=O)c1c(C(C)C)nc(C(C)C)c(/C=C/[C@@H](O)C[C@@H](O)CC(=O)O)c1-c1ccc(F)cc1` (relative stereo) [Example 33, [R*,S*-(E)]-7-[4-(4-fluorophenyl)-2,6-bis(1-methylethyl)-5-[(propylamino)carbonyl]-3-pyridinyl]-3,5-dihydroxy-6-heptenoic acid, monosodium salt] has an IC50 of 20 nM.
Compound `CCc1nc(CC)c(C(=O)OC)c(-c2ccc(F)cc2)c1/C=C/[C@@H](O)C[C@@H](O)CC(=O)O` (relative stereo) [Example 35, [R*,S*-(E)]-5-(6-carboxy-3,5-dihydroxy-1-hexenyl)-2,6-diethyl-4-(4-fluorophenyl)-, methyl ester, 3-pyridinecarboxylic acid, monosodium salt] has an IC50 of 44 nM.
`CCc1nc(CC)c(CO)c(-c2ccc(F)cc2)c1/C=C/[C@@H](O)C[C@@H](O)CC(=O)O` (relative stereo) [Example 37, [R*,S*-(E)]-7-[2,6-diethyl-4-(4-fluorophenyl)-5-(hydroxymethyl)-3-pyridinyl]-3,5-dihydroxy-6-heptenoic acid, monosodium salt] showed an IC50 of 24 nM.
`COc1c(C)nc(C(C)C)c(/C=C/[C@@H](O)C[C@@H](O)CC(=O)O)c1-c1ccc(F)cc1` (relative stereo) [Example 39, [R*,S*-(E)]-7-[4-(4-fluorophenyl)-5-methoxy-6-methyl-2-(1-methylethyl)-3-pyridinyl]-3,5-dihydroxy-6-heptenoic acid, monosodium salt] showed an IC50 of 8 nM.
`C=Cc1c(C)nc(C(C)C)c(/C=C/[C@@H](O)C[C@@H](O)CC(=O)O)c1-c1ccc(F)cc1` (relative stereo) [Example 41, [R*,S*-(E)]-7-[5-ethenyl-4-(4-fluorophenyl)-6-methyl-2-(1-methylethyl)-3-pyridinyl]-3,5-dihydroxy-6-heptenoic acid, monosodium salt] was tested, and the IC50 was 11 nM.

Each compound was assayed on Cholesterol Synthesis (assay: AICS screen: inhibition of cholesterol synthesis in rats (plasma [14C]cholesterol after sodium [1-14C]-acetate)). Conditions: Rattus norvegicus, 50 min; 1.0 mg/kg, single dose, oral gavage, male Sprague-Dawley rats fed 5% cholestyramine; acetate one hour after drug, blood after 50 minutes.
Type: in vivo
Procedure: The ability of compounds of the present invention to inhibit the biosynthesis of cholesterol was also measured by a method (designated AICS screen) which utilizes the procedure described by A. W. Alberts et al, Proc. Natl. Acad. Sci., (1980), 77, pp 3957-3961.
In this method male Sprague-Dawley rats (200 g body weight) previously fed 5% cholestyramine for three days were randomly divided into groups (N=5/group) and given a single dose of vehicle (controls) or compound by an oral gavage at the indicated doses. One hour after drug dosing, all rats were injected intraperitoneally with sodium[1-^14 C]-acetate (18.75 μCi/rat in 0.2 ml saline). After 50 minutes, blood samples were taken, plasma obtained by centrifugation, and plasma [^14 C]cholesterol measured after saponification and extraction.
Work on `COC(=O)c1c(C(C)C)nc(C(C)C)c(/C=C/[C@@H]2C[C@@H](O)CC(=O)O2)c1-c1ccc(F)cc1` (relative stereo) [Example 13, [2α,4β-(E)]-4-(4-fluorophenyl)-2,6-bis(1-methylethyl)-5-[2-(tetrahydro-4-hydroxy-6-oxo-2H-pyran-2-yl)ethenyl]-3-pyridinecarboxylic acid, methyl ester] yielded a change in vivo at 1 mg/kg of -67%.
In the case of `CC(C)c1cc(-c2ccc(F)cc2)c(/C=C/[C@@H]2C[C@@H](O)CC(=O)O2)c(C(C)C)n1` (relative stereo) [Example 15], the change in vivo at 1 mg/kg is reported as -55%.

Same assay, conditions: Rattus norvegicus, 50 min; 1.5 mg/kg, single dose, oral gavage, male Sprague-Dawley rats fed 5% cholestyramine; acetate one hour after drug, blood after 50 minutes
Compound `COC(=O)c1c(C(C)C)nc(C)c(/C=C/[C@@H]2C[C@@H](O)CC(=O)O2)c1-c1ccc(F)cc1` (relative stereo) [Example 9] has a change in vivo at 1.5 mg/kg of -55%.
Compound `CCOC(=O)c1c(C)nc(C)c(/C=C/[C@@H]2C[C@@H](O)CC(=O)O2)c1-c1ccc(F)cc1` (relative stereo) [Example 11, [4α,6β-(E)]-4-(4-fluorophenyl)-2,6-dimethyl-5-[2-(tetrahydro-4-hydroxy-6-oxo-2H-pyran-2-yl)ethenyl]-, ethyl ester, 3-pyridinecarboxylic acid] has a change in vivo at 1.5 mg/kg of -41%.
